Values after ≈ are worked out from the molar mass of the structure shown. Marks after values point to notes of the source that are not given here.
Legend:
Type in all cases: physicochemical
[1] = Solubility screening procedure (concentration and pH of filtrate); conditions: for Conc. of CPD A: compound A + equimolar acid; for Conc. of CPD A / Conc. of CPD B: amino acid or base in deionized water, room temperature, filtrate, UV assay; for pH of Solution: pH of the filtrate; for Conc. of CPD B: compound B + equimolar acid
Protocol: (§1) The amount of Compound A or Compound B calculated for selected concentrations was weighed into volumetric flasks. Equimolar quantities of combining acid, amino acid, or base were added either as solutions or in dry form. Deionized water was added to bring the volume to that desired for the preselected concentrations.. All flasks were sonicated for 15 minutes, allowed to stand at room temperature for 30 minutes, then filtered through a fine frit sintered glass funnel. After the pH of the filtrate was taken, suitable dilutions were made into 0.1N HCl for ultraviolet spectrophotometric assay of concentration. Ten fold dilutions of the original filtrates were made into standard I.V. solutions.

[2] = Solubility of lyophilized and crystalline solids; conditions: for pH of Solution Cryst.: crystalline solid
[3] = 10x dilution of soluble forms with standard IV solutions (pH, precipitate); conditions: for Solution 1 ppt 24 hr / Solution 3 ppt 24 hr / Solution 2 ppt 24 hr / Solution 4 ppt 24 hr: precipitate at 24 hr; for Concen. of Cpd A: undiluted solution used for the 10x dilutions
Protocol: as §1

[4] = lyophilized solid, not necessarily maximum value
[5] = Cpd A salt solution diluted 10x with 0.9% NaCl
[6] = Cpd A salt solution diluted 10x with 5% Dextrose
[7] = Cpd A salt solution diluted 10x with 5% Dextrose + 0.9% NaCl
[8] = Cpd A salt solution diluted 10x with Lactated Ringer's Solution
[9] = concentrated Cpd B solution (154-221 mg/ml) diluted 10x with 5% Dextrose
[10] = concentrated Cpd B solution (154-221 mg/ml) diluted 10x with 5% Dextrose + 0.9% NaCl
[11] = concentrated Cpd B solution (154-221 mg/ml) diluted 10x with Lactated Ringer's Solution
[12] = concentrated Cpd B solution (155-221 mg/ml) diluted 10x with 0.9% NaCl
[13] = concentrated Cpd B solution (155-221 mg/ml) diluted 10x with 0.9% NaCl, precipitate at 4 hr
[14] = concentrated Cpd B solution diluted 10x with 5% Dextrose + 0.9% NaCl
[15] = concentrated Cpd B solution diluted 10x with 5% Dextrose
[16] = concentrated Cpd B solution diluted 10x with Lactated Ringer's Solution
[17] = low-concentration Cpd B solution (26.2-52 mg/ml) diluted 10x with 0.9% NaCl
[18] = separate undiluted concentrated Cpd B solution used for Solutions 2-4 only
[19] = separate undiluted concentrated solution used for Solutions 2-4 only
[20] = undiluted concentrated Cpd B solution used for the Solution 1 dilution
[21] = undiluted concentrated solution (at least 155 mg/ml) used for the Solution 1 dilution (for most salts for all four solutions)
[22] = undiluted low-concentration Cpd B solution (26.2-52 mg/ml)
[23] = undiluted low-concentration solution (26.2-52 mg/ml), diluted with Solution 1 only
[24] = concentrated Cpd B solution diluted 10x with 5% Dextrose, precipitate at 4 hr

For `CCn1cc(C(=O)O)c(=O)c2cc(F)c(N3CCNCC3)cc21` [A L-Aspartic], the “Conc. of CPD A” value [1] was 174000 µg/mL, the “pH of Solution” value ([1]; CPD A solutions) was 4.88 and the “pH of Solution Cryst.” value ([2]; CPD A salt) was 4.8. The “pH of Solution Lyo.” value ([2]; CPD A salt, lyophilized solid) was 4.5, the “Conc. of CPD A mg/ml Lyo.” value [2, 4] was 256 mg/mL and the “Solution 1 pH dil” value [3, 5] was 5.05. The “Solution 1 ppt 24 hr” value [3, 5] was “no”, the “Solution 2 pH dil” value [3, 6] was 4.83 and the “Solution 3 pH dil” value [3, 7] was 4.84. The “Solution 3 ppt 24 hr” value [3, 7] was “no”, the “Solution 2 ppt 24 hr” value [3, 6] was “slight” and the “Solution 4 pH dil” value [3, 8] was 5.02. For the same compound, the “Solution 4 ppt 24 hr” value [3, 8] was “no”, the “pH of Solut.” value ([3]; undiluted Cpd A solution) was 4.88 and the “Concen. of Cpd A” value [3] was 174000 µg/mL.

With `CCn1cc(C(=O)O)c(=O)c2cc(F)c(N3CCNCC3)cc21` [A L-Glutamic] the “Conc. of CPD A” value [1] was 174000 µg/mL, the “pH of Solution” value ([1]; CPD A solutions) was 5.08 and the “pH of Solution Cryst.” value ([2]; CPD A salt) was 5.5. For the same compound, the “pH of Solution Lyo.” value ([2]; CPD A salt, lyophilized solid) was 5.2, the “Conc. of CPD A mg/ml Lyo.” value [2, 4] was 254 mg/mL and the “Solution 1 pH dil” value [3, 5] was 5.18. For the same compound, the “Solution 1 ppt 24 hr” value [3, 5] was “no”, the “Solution 2 pH dil” value [3, 6] was 5.05 and the “Solution 3 pH dil” value [3, 7] was 5.05. For the same compound, the “Solution 3 ppt 24 hr” value [3, 7] was “no”, the “Solution 2 ppt 24 hr” value [3, 6] was “no” and the “Solution 4 pH dil” value [3, 8] was 5.15. The “Solution 4 ppt 24 hr” value [3, 8] was “no”, the “pH of Solut.” value ([3]; undiluted Cpd A solution) was 5.08 and the “Concen. of Cpd A” value [3] was 174000 µg/mL.

With `CCn1cc(C(=O)O)c(=O)c2cc(F)c(N3CCNCC3)cc21` [A Lactic] the “Conc. of CPD A” value [1] was 198000 µg/mL, the “pH of Solution” value ([1]; CPD A solutions) was 4.05 and the “pH of Solution Cryst.” value ([2]; CPD A salt) was 5.15. The “pH of Solution Lyo.” value ([2]; CPD A salt, lyophilized solid) was 4.6, the “Conc. of CPD A mg/ml Lyo.” value [2, 4] was 256 mg/mL and the “Solution 1 pH dil” value [3, 5] was 4.3. The “Solution 1 ppt 24 hr” value [3, 5] was “no”, the “Solution 2 pH dil” value [3, 6] was 4.8 and the “Solution 3 pH dil” value [3, 7] was 4.2. The “Solution 3 ppt 24 hr” value [3, 7] was “no”, the “Solution 2 ppt 24 hr” value [3, 6] was “no” and the “Solution 4 pH dil” value [3, 8] was 4.5. For the same compound, the “Solution 4 ppt 24 hr” value [3, 8] was “no”, the “pH of Solut.” value ([3]; undiluted Cpd A solution) was 4.17 and the “Concen. of Cpd A” value [3] was 193000 µg/mL.

In the case of `CCn1cc(C(=O)O)c(=O)c2cc(F)c(N3CCNCC3)nc21` [B Isethionic], the “Conc. of CPD B” value [1] is reported as 220000 µg/mL, the “pH of Solution” value ([1]; CPD B solutions) is reported as 1.01 and the “pH of Solution Cryst.” value ([2]; CPD B salt) is reported as 2.84. For the same compound, the “pH of Solution Lyo.” value ([2]; CPD B salt, lyophilized solid) was 1.4, the “Solution 2 pH dil” value [3, 9] was 2.35 and the “Solution 3 pH dil” value [3, 10] was 2.14. The “Solution 4 pH dil” value [3, 11] was 3.95, the “Solution 1 pH dil” value [3, 12] was 2.08 and the “Solution 1 ppt 4 hr” value [3, 13] was “no”. The “Solution 1 ppt 24 hr” value [3, 12] was “yes”, the “Solution 3 ppt 24 hr” value [3, 14] was “yes” and the “Solution 2 ppt 24 hr” value [3, 15] was “no”. The “Solution 4 ppt 24 hr” value [3, 16] was “slight”, the “Solution 1 pH dil” value [3, 17] was 3.05 and the “Solution 1 ppt 24 hr” value [3, 17] was “no”. The “pH of Solut.” value [3, 18] was 1.40, the “Concen. of Cpd B” value [3, 19] was 196000 µg/mL and the “pH of Solut.” value [3, 20] was 1.01. The “Concen. of Cpd B” value [3, 21] was 220000 µg/mL, the “pH of Solut.” value [3, 22] was 2.16 and the “Concen. of Cpd B” value [3, 23] was 48800 µg/mL.

With `CCn1cc(C(=O)O)c(=O)c2cc(F)c(N3CCNCC3)nc21` [B L-Aspartic] the “Conc. of CPD B” value [1] was 165000 µg/mL, the “pH of Solution” value ([1]; CPD B solutions) was 4.64 and the “pH of Solution Cryst.” value ([2]; CPD B salt) was 4.80. The “pH of Solution Lyo.” value ([2]; CPD B salt, lyophilized solid) was 4.65, the “Solution 2 pH dil” value [3, 9] was 4.83 and the “Solution 3 pH dil” value [3, 10] was 4.71. For the same compound, the “Solution 4 pH dil” value [3, 11] was 4.94, the “Solution 1 pH dil” value [3, 12] was 4.82 and the “Solution 1 ppt 4 hr” value [3, 13] was “no”. For the same compound, the “Solution 1 ppt 24 hr” value [3, 12] was “yes”, the “Solution 3 ppt 24 hr” value [3, 14] was “yes” and the “Solution 2 ppt 24 hr” value [3, 15] was “no”. The “Solution 4 ppt 24 hr” value [3, 16] was “no”, the “Solution 1 pH dil” value [3, 17] was 5.54 and the “Solution 1 ppt 24 hr” value [3, 17] was “no”. For the same compound, the “pH of Solut.” value [3, 18] was 4.60, the “Concen. of Cpd B” value [3, 19] was 190000 µg/mL and the “pH of Solut.” value [3, 20] was 4.64. The “Concen. of Cpd B” value [3, 21] was 165000 µg/mL, the “pH of Solut.” value [3, 22] was 4.48 and the “Concen. of Cpd B” value [3, 23] was 49800 µg/mL.

In the case of `CCn1cc(C(=O)O)c(=O)c2cc(F)c(N3CCNCC3)nc21` [B L-Glutamic], the “Conc. of CPD B” value [1] is reported as 160000 µg/mL, the “pH of Solution” value ([1]; CPD B solutions) is reported as 4.98 and the “pH of Solution Cryst.” value ([2]; CPD B salt) is reported as 4.84. The “pH of Solution Lyo.” value ([2]; CPD B salt, lyophilized solid) was 4.8, the “Solution 2 pH dil” value [3, 9] was 5.06 and the “Solution 3 pH dil” value [3, 10] was 4.95. For the same compound, the “Solution 4 pH dil” value [3, 11] was 5.09, the “Solution 1 pH dil” value [3, 12] was 5.10 and the “Solution 1 ppt 4 hr” value [3, 13] was “no”. The “Solution 1 ppt 24 hr” value [3, 12] was “yes”, the “Solution 3 ppt 24 hr” value [3, 14] was “slight” and the “Solution 2 ppt 4 hr” value [3, 24] was “slight”. The “Solution 2 ppt 24 hr” value [3, 15] was “slight”, the “Solution 4 ppt 24 hr” value [3, 16] was “slight” and the “Solution 1 pH dil” value [3, 17] was 4.99. For the same compound, the “Solution 1 ppt 24 hr” value [3, 17] was “no”, the “pH of Solut.” value [3, 18] was 5.20 and the “Concen. of Cpd B” value [3, 19] was 154000 µg/mL. The “pH of Solut.” value [3, 20] was 4.98, the “Concen. of Cpd B” value [3, 21] was 160000 µg/mL and the “pH of Solut.” value [3, 22] was 4.95. For the same compound, the “Concen. of Cpd B” value [3, 23] was 48200 µg/mL.

In the case of `CCn1cc(C(=O)O)c(=O)c2cc(F)c(N3CCNCC3)nc21` [B Methane Sulphonic], the “Conc. of CPD B” value [1] is reported as 211000 µg/mL, the “pH of Solution” value ([1]; CPD B solutions) is reported as 1.67^c and the “pH of Solution Cryst.” value ([2]; CPD B salt) is reported as 3.15. For the same compound, the “pH of Solution Lyo.” value ([2]; CPD B salt, lyophilized solid) was 1.8, the solubility ([2]; lyophilized solid, not necessarily maximum value, read-out: Conc. of CPD B mg/ml Lyo.) was 200 mg/mL (≈ 624 mM) and the “Solution 2 pH dil” value [3, 9] was 3.2. The “Solution 3 pH dil” value [3, 10] was 2.8, the “Solution 4 pH dil” value [3, 11] was 4.2 and the “Solution 1 pH dil” value [3, 12] was 2.3. For the same compound, the “Solution 1 ppt 4 hr” value [3, 13] was “yes”, the “Solution 1 ppt 24 hr” value [3, 12] was “yes” and the “Solution 3 ppt 4 hr” value ([3]; concentrated Cpd B solution diluted 10x with 5% Dextrose + 0.9% NaCl, precipitate at 4 hr) was “yes”. For the same compound, the “Solution 3 ppt 24 hr” value [3, 14] was “yes”, the “Solution 2 ppt 4 hr” value [3, 24] was “hazy” and the “Solution 2 ppt 24 hr” value [3, 15] was “hazy”. The “Solution 4 ppt 4 hr” value ([3]; concentrated Cpd B solution diluted 10x with Lactated Ringer's Solution, precipitate at 4 hr) was “yes”, the “Solution 4 ppt 24 hr” value [3, 16] was “yes” and the “Solution 1 pH dil” value [3, 17] was 4.47. The “Solution 1 ppt 24 hr” value [3, 17] was “no”, the “pH of Solut.” value [3, 20] was 1.38 and the “Concen. of Cpd B” value [3, 21] was 178000 µg/mL. For the same compound, the “pH of Solut.” value [3, 22] was 5.07 and the “Concen. of Cpd B” value [3, 23] was 26200 µg/mL.

From EP0067666A1, “Salts of antimicrobial naphthyridine and quinoline compounds and their production” (priority 1981, dated 1982)
